Tests used:
native avidin [1] = target: T1, native avidin (Gallus gallus, UniProt P02701); test: Biotin effect on quenched fluorescence; format: binding; conditions: native avidin 5 μM; free initiator or free initiation inhibitor 5.12 mM; biotin 10 μM
T1 construct: Avidin is a tetrameric protein purified from egg white; purchased Lee Biosolutions; host or cells: egg white
Protocol: Biotin effect on quenched fluorescence: […] Free initiator (10 μL, final concentrations 5.12 mM) or free initiation inhibitor (10 μL, final concentrations 5.12 mM) were added to avidin solution and florescence intensities were measured. After the fluorescence intensities were recorded with free initiator or free initiation inhibitor, biotin (10 μL, final concentration 10 μM) was added to the mixture and fluorescence intensities were measured again.

native avidin [2] = target: T1, native avidin; test: Tryptophan fluorescence quenching assay; format: binding; conditions: native avidin 5 μM; added at 20 μM-5.12 mM
Protocol: Tryptophan fluorescence quenching assay: Intrinsic tryptophan fluorescence intensity of native avidin (180 μL, final concentration 5 μM) was measured at an excitation wavelength of 270 nm and emission of 300-400 nm in a 96-well plate. N-2-bromo-2-methylpropanoyl-β-alanine (free initiator) (20 μL, final concentrations 20 μM, 80 μM, 320 μM, 1.28 mM, 5.12 mM) or N-2-methylpropanoyl-β-alanine (free initiation inhibitor) (20 μL, final concentrations 20 μM, 80 μM, 320 μM, 1.28 mM, 5.12 mM) were added to native avidin and tryptophan fluorescence was measured again.

[3] = Stopped-flow binding kinetics of biotin to avidin and avidin-pCBMA conjugates; conditions: kobs first-order, avidin 0.5 μM, biotin 5.0 μM, 0.1 M phosphate buffer pH 8
Protocol: (§1) Biotin and biotin PEG binding kinetics: Kinetic measurements of avidin-pCBMA conjugates with biotin and biotin-PEG substrates were taken using a stopped-flow spectrometer with fluorescence detection (Applied Photophysics SX20). The dead time of the instrument was 2 ms. The excitation wavelength was 270 nm with 5 nm bandwidth. Instrument permitted to collect 1000 data points throughput the reaction (0.1-450 s). For all experiments avidin concentration was 0.5 μM (final) and biotin or biotin-PEG concentration was 5.0 μM (final). Reactions were initiated by mixing equal volumes of avidin with its substrates in 0.1 M phosphate buffer, pH 8. Fluorescence was measured in volts. Data were fit to single exponential functions using F(t)=F∞·ΔFexp(−kobst) equation, where, kobs is the observed first-order rate constant, F∞ is the final value of fluorescence and ΔF is the amplitude. In case of native avidin kinetics the data were fit to single exponential functions using F(t)=F∞+ΔFexp(−kobst) equation, where, kobs is the observed first-order rate constant, F∞ is the final value of fluorescence and ΔF is the amplitude. […]
(§2) Instrumentation and Sample Analysis Preparations: ^1H and ^13C NMR were recorded on a spectrometer (300 MHz, 75 MHz, Bruker Avance™ 300), with deuterium oxide (D2O), DMSO-d6, and CDCl3. […] Melting points (mp) were measured with a Laboratory Devices Mel-Temp. […]

[4] = Stopped-flow biotin-PEG binding kinetics, 30 kDa; conditions: avidin 0.5 μM, biotin-PEG 5.0 μM, 0.1 M phosphate buffer pH 8
Protocol: as §1, §2

[5] = Stopped-flow biotin-PEG binding kinetics, 5 kDa; conditions: avidin 0.5 μM, biotin-PEG 5.0 μM, 0.1 M phosphate buffer pH 8
Protocol: as §1, §2

Biotin-aprotinin = target: T2, Biotin-aprotinin (Bos taurus, UniProt P00974); test: Stopped-flow biotin-protein binding kinetics, biotin-aprotinin; conditions: avidin 0.5 μM, biotin-protein 5.0 μM, 0.1 M phosphate buffer pH 8
T2 construct: purchased Sigma Aldrich
Protocol: (§3) The solution was stirred at 4° C. for 2 hours and protein-biotin conjugates were purified by dialysis using 15 kDa molecular mass cutoff dialysis tube in deionized water and then lyophilized.
(§4) Biotin-Protein binding kinetics: For biotinylated protein binding kinetics avidin conjugates (0.5 μM final) were mixed with biotin-protein (5.0 μM final) in a stopped-flow accessory on PTI QuantaMaster-400 fluorometer (Horiba Instruments Inc.). The dead time of the instrument was 60 ms. The excitation wavelength was 295 nm (to selectively excite tryptophan residues) with a 20 nm bandwidth (Skelly et al., FEBS Lett 262:127-130, 1990). Excitation occurred through a 1.96-mm path in the stopped-flow optical cell, and emission was measured through a 7.68-mm path. […]
(§5) Instrumentation and Sample Analysis Preparations: ^1H and ^13C NMR were recorded on a spectrometer (300 MHz, 75 MHz, Bruker Avance™ 300), with deuterium oxide (D2O), DMSO-d6, and CDCl3. […] Melting points (mp) were measured with a Laboratory Devices Mel-Temp. […] The hydrodynamic diameter of samples was measured three times (5 run to each measurement, reported as number distribution) in 0.1 M sodium phosphate, pH 8. Biotin and bio-PEG binding kinetics were measured using a stopped-flow spectrometer with fluorescence detection (Applied Photophysics SX20). […] The excitation wavelength was set to 295 nm and emission wavelength was monitored at 340 nm. […]

[6] = work described elsewhere (Kurzban et al.); 337 to 324 nm, blue shift in emission; cited from earlier work
[7] = Stopped-flow biotin-PEG binding kinetics, 10 kDa; conditions: avidin 0.5 μM, biotin-PEG 5.0 μM, 0.1 M phosphate buffer pH 8
Protocol: as §1, §2

Biotin-HRP = test: Stopped-flow biotin-protein binding kinetics, biotin-HRP; conditions: avidin 0.5 μM, biotin-protein 5.0 μM, 0.1 M phosphate buffer pH 8
Protocol: as §3, §4, §5

[8] = Stopped-flow biotin-PEG binding kinetics, 550 Da; conditions: for Biotin-PEG 550 Da k/s^−1: avidin 0.5 μM, biotin-PEG 5.0 μM, 0.1 M phosphate buffer pH 8
Protocol: Biotin and biotin PEG binding kinetics: Kinetic measurements of avidin-pCBMA conjugates with biotin and biotin-PEG substrates were taken using a stopped-flow spectrometer with fluorescence detection (Applied Photophysics SX20). The dead time of the instrument was 2 ms. The excitation wavelength was 270 nm with 5 nm bandwidth. Instrument permitted to collect 1000 data points throughput the reaction (0.1-450 s). For all experiments avidin concentration was 0.5 μM (final) and biotin or biotin-PEG concentration was 5.0 μM (final). Reactions were initiated by mixing equal volumes of avidin with its substrates in 0.1 M phosphate buffer, pH 8. Fluorescence was measured in volts. Data were fit to single exponential functions using F(t)=F∞·ΔFexp(−kobst) equation, where, kobs is the observed first-order rate constant, F∞ is the final value of fluorescence and ΔF is the amplitude. In case of native avidin kinetics the data were fit to single exponential functions using F(t)=F∞+ΔFexp(−kobst) equation, where, kobs is the observed first-order rate constant, F∞ is the final value of fluorescence and ΔF is the amplitude. All data analysis was performed in Microsoft Excel.
Instrumentation and Sample Analysis Preparations: ^1H and ^13C NMR were recorded on a spectrometer (300 MHz, 75 MHz, Bruker Avance™ 300), with deuterium oxide (D2O), DMSO-d6, and CDCl3. Routine FT-IR spectra were obtained with a Nicolet Magna-IR 560 spectrometer (Thermo). UV-VIS spectra were obtained and used for protein concentration determination using a UV-VIS spectrometer (Lambda 2, PerkinElmer). Melting points (mp) were measured with a Laboratory Devices Mel-Temp. […] The hydrodynamic diameter of samples was measured three times (5 run to each measurement, reported as number distribution) in 0.1 M sodium phosphate, pH 8. Biotin and bio-PEG binding kinetics were measured using a stopped-flow spectrometer with fluorescence detection (Applied Photophysics SX20). […] The excitation wavelength was set to 295 nm and emission wavelength was monitored at 340 nm. […] Fluorescence was measured in volts.

[9] = Hydrodynamic diameter by dynamic light scattering; format: physicochemical; conditions: DLS; for substrate size (Dh): biotinylated substrates, text and FIG. 10 legend
Protocol: Measuring conjugate hydrodynamic diameter: The DLS data was collected on a Malvern Zetasizer nano-ZS. Native avidin and avidin conjugates ([…]) were dissolved in 0.1 M sodium phosphate, pH 8. The hydrodynamic diameter (Dh) of the samples was measured three times (12 runs/measurement). Reported values are number distribution intensities.
Instrumentation and Sample Analysis Preparations: ^1H and ^13C NMR were recorded on a spectrometer (300 MHz, 75 MHz, Bruker Avance™ 300), with deuterium oxide (D2O), DMSO-d6, and CDCl3. Routine FT-IR spectra were obtained with a Nicolet Magna-IR 560 spectrometer (Thermo). UV-VIS spectra were obtained and used for protein concentration determination using a UV-VIS spectrometer (Lambda 2, PerkinElmer). Melting points (mp) were measured with a Laboratory Devices Mel-Temp. Number and weight average molecular weights (Mn and Mw) and the polydispersity index (Mw/Mn) were estimated by gel permeation chromatography (GPC) on a Water 2695 Series with a data processor, equipped with three columns (Waters Ultrahydrogel Linier, 500 and 250), using Dulbecco's Phosphate Buffered Saline with 0.02 wt % sodium azide as an eluent at flow rate 1.0 mL/min, with detection by a refractive index (RI) detector. Pullulan standards (PSS-Polymer Standards Service—USA Inc., Amherst, Mass.) were used for calibration. Matrix-Assisted Laser Desorption Ionization Time-of-Flight Spectrometry (MALDI-ToF MS) was performed with a Perseptive Biosystems Voyager Elite MALDI-TOF spectrometer. Dynamic Light Scattering (DLS) data were collected on a Malvern Zetasizer nano-ZS. The concentration of the sample solution was kept at 1.0 mg/mL. The hydrodynamic diameter of samples was measured three times (5 run to each measurement, reported as number distribution) in 0.1 M sodium phosphate, pH 8. Biotin and bio-PEG binding kinetics were measured using a stopped-flow spectrometer with fluorescence detection (Applied Photophysics SX20). […] The excitation wavelength was set to 295 nm and emission wavelength was monitored at 340 nm. […] Fluorescence was measured in volts.

[10] = Table 4, low-density avidin conjugates
[11] = Table 9, high-density avidin conjugates

O=C(O)CCCC[C@@H]1SC[C@@H]2NC(=O)N[C@@H]21 [biotin]
effect on tryptophan fluorescence of native avidin incubated with free initiator or free initiation inhibitor (native avidin [1]): restored the quenched tryptophan fluorescence

CC(C)C(=O)NCCC(=O)O [free initiation inhibitor, N-2-methylpropanoyl-β-alanine]
effect on tryptophan fluorescence of native avidin incubated with free initiator or free initiation inhibitor (native avidin [1]): did not have effect on fluorescence | quenching of native avidin tryptophan fluorescence (native avidin [2]): None of the tested concentrations of initiation inhibitor had an effect on fluorescence

CC(C)(Br)C(=O)NCCC(=O)O [free initiator, N-2-bromo-2-methylpropanoyl-β-alanine]
quenching of native avidin tryptophan fluorescence (native avidin [2]): higher degree of fluorescence quenching

Native avidin
Biotin k/s^−1 [3, 10]: 105.21 s⁻¹ | Biotin k/s^−1 [3, 11]: 105.21 s⁻¹ | Biotin-PEG 30 kDa k/s^−1 [4, 10]: 5.89 s⁻¹ | Biotin-PEG 30 kDa k/s^−1 [4, 11]: 5.89 s⁻¹ | Biotin-PEG 5 kDa k/s^−1 [5, 10]: 17.02 s⁻¹ | Biotin-PEG 5 kDa k/s^−1 [5, 11]: 17.02 s⁻¹ | Biotin-aprotinin k/s^−1 (Biotin-aprotinin; [10]): 73.45 s⁻¹ | Biotin-aprotinin k/s^−1 (Biotin-aprotinin; [11]): 73.45 s⁻¹ | intrinsic tryptophan fluorescence of avidin upon biotin binding [6]: decreased | Biotin-PEG 10 kDa k/s^−1 [7, 10]: 12.02 s⁻¹ | Biotin-PEG 10 kDa k/s^−1 [7, 11]: 12.02 s⁻¹ | Biotin-HRP k/s^−1 (Biotin-HRP; [10]): 5.03 s⁻¹ | Biotin-HRP k/s^−1 (Biotin-HRP; [11]): 5.03 s⁻¹ | Biotin-PEG 550 Da k/s^−1 [8, 10]: 20.93 s⁻¹ | Biotin-PEG 550 Da k/s^−1 [8, 11]: 20.93 s⁻¹ | binding rate of biotin-PEG 550 Da, slower than biotin ([8]; relative to biotin binding rate): 80%

Aprotinin [reference compound]
Dh (hydrodynamic size) ([9]; bio-pro substrates, Table 3): 2.4 ± 0.4 | substrate size (Dh) ([9]; listed as biotin-aprotinin): 2.4±0.4 nm | substrate size (Dh) ([9]; listed as biotinylated aprotinin): 2.4 nm

From US20210388337A1, “PROTEIN-POLYMER CONJUGATES AND METHODS FOR THEIR PREPARATION” (Carnegie Mellon University, priority 2018, published 2021)
